Assay results reported in PubChem BioAssay (NCI).
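Values below derive from 48-hour exposures of cells grown in 96-well plates, with endpoints linearly interpolated between the two concentrations bracketing the appropriate inhibition level. The concentration for 50% growth inhibition is given as GI50. TGI is the concentration that stops growth completely.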

Key:
Assay in all cases: NCI-60 cell line screen, 48 h
SW-620 colon = system: SW-620 colon
M14 melanoma = system: M14 melanoma
OVCAR-8 ovarian = system: OVCAR-8 ovarian
U251 CNS = system: U251 CNS
KM12 colon = system: KM12 colon
HOP-62 NSCLC = system: HOP-62 NSCLC
PC-3 prostate = system: PC-3 prostate
ACHN renal = system: ACHN renal
T-47D breast = system: T-47D breast
BT-549 breast = system: BT-549 breast
OVCAR-3 ovarian = system: OVCAR-3 ovarian
HCC-2998 colon = system: HCC-2998 colon
HL-60(TB) leukemia = system: HL-60(TB) leukemia
COLO 205 colon = system: COLO 205 colon
786-0 renal = system: 786-0 renal
UO-31 renal = system: UO-31 renal
DU-145 prostate = system: DU-145 prostate
NCI/ADR-RES ovarian = system: NCI/ADR-RES ovarian
SR leukemia = system: SR leukemia
NCI-H23 lung = system: NCI-H23 lung
NCI-H226 lung = system: NCI-H226 lung
HCT-116 colon = system: HCT-116 colon
TK-10 renal = system: TK-10 renal
SF-295 CNS = system: SF-295 CNS
MCF7 breast = system: MCF7 breast
SK-MEL-28 melanoma = system: SK-MEL-28 melanoma
UACC-62 melanoma = system: UACC-62 melanoma
HCT-15 colon = system: HCT-15 colon
RPMI-8226 leukemia = system: RPMI-8226 leukemia
SF-539 CNS = system: SF-539 CNS
SF-268 CNS = system: SF-268 CNS
OVCAR-4 ovarian = system: OVCAR-4 ovarian
OVCAR-5 ovarian = system: OVCAR-5 ovarian
K-562 leukemia = system: K-562 leukemia
HOP-92 NSCLC = system: HOP-92 NSCLC
SNB-19 CNS = system: SNB-19 CNS
A498 renal = system: A498 renal
HS 578T breast = system: HS 578T breast
NCI-H522 lung = system: NCI-H522 lung
LOX IMVI melanoma = system: LOX IMVI melanoma
IGROV1 ovarian = system: IGROV1 ovarian
SN12C renal = system: SN12C renal
NCI-H460 lung = system: NCI-H460 lung
RXF 393 renal = system: RXF 393 renal
MDA-MB-231 breast = system: MDA-MB-231 breast
MDA-MB-435 = system: MDA-MB-435
A549 NSCLC = system: A549 NSCLC
SK-MEL-5 melanoma = system: SK-MEL-5 melanoma
CCRF-CEM leukemia = system: CCRF-CEM leukemia
UACC-257 melanoma = system: UACC-257 melanoma
MALME-3M melanoma = system: MALME-3M melanoma
SNB-75 CNS = system: SNB-75 CNS
HT29 colon = system: HT29 colon
MOLT-4 leukemia = system: MOLT-4 leukemia
SK-OV-3 ovarian = system: SK-OV-3 ovarian
EKVX NSCLC = system: EKVX NSCLC
SK-MEL-2 melanoma = system: SK-MEL-2 melanoma
CAKI-1 renal = system: CAKI-1 renal

In the case of `N=C(N)N=Nc1ccc(NN=C(N)N)c2c1ncc1c2nc2sccn21`, the GI50 (SW-620 colon) is reported as 23.9 µM, the TGI (SW-620 colon) is reported as 67.8 µM and the GI50 (M14 melanoma) is reported as 22.9 µM. The TGI (M14 melanoma) was 80 µM, the GI50 (OVCAR-8 ovarian) was 27.3 µM and the TGI (OVCAR-8 ovarian) was > 100 µM. The GI50 (U251 CNS) was 23.2 µM, the TGI (U251 CNS) was > 100 µM and the GI50 (KM12 colon) was 21.9 µM. For the same compound, the TGI (KM12 colon) was > 100 µM, the GI50 (HOP-62 NSCLC) was 29.6 µM and the TGI (HOP-62 NSCLC) was > 100 µM. The GI50 (PC-3 prostate) was 27 µM, the TGI (PC-3 prostate) was 99.5 µM and the GI50 (ACHN renal) was 22.3 µM. The TGI (ACHN renal) was 51.3 µM, the GI50 (T-47D breast) was > 100 µM and the TGI (T-47D breast) was > 100 µM. The GI50 (BT-549 breast) was 16.5 µM, the TGI (BT-549 breast) was 32.9 µM and the GI50 (OVCAR-3 ovarian) was 18.8 µM. For the same compound, the TGI (OVCAR-3 ovarian) was > 100 µM, the GI50 (HCC-2998 colon) was 65.7 µM and the TGI (HCC-2998 colon) was > 100 µM. For the same compound, the GI50 (HL-60(TB) leukemia) was 73.6 µM, the TGI (HL-60(TB) leukemia) was > 100 µM and the GI50 (COLO 205 colon) was 40.6 µM. For the same compound, the TGI (COLO 205 colon) was > 100 µM, the GI50 (786-0 renal) was 29.2 µM and the TGI (786-0 renal) was > 100 µM. The GI50 (UO-31 renal) was 23.7 µM, the TGI (UO-31 renal) was > 100 µM and the GI50 (DU-145 prostate) was 15.3 µM. For the same compound, the TGI (DU-145 prostate) was 44.3 µM, the GI50 (NCI/ADR-RES ovarian) was 28.6 µM and the TGI (NCI/ADR-RES ovarian) was > 100 µM. The GI50 (SR leukemia) was > 100 µM, the TGI (SR leukemia) was > 100 µM and the GI50 (NCI-H23 lung) was 32.1 µM. For the same compound, the TGI (NCI-H23 lung) was > 100 µM, the GI50 (NCI-H226 lung) was 32.3 µM and the TGI (NCI-H226 lung) was > 100 µM. The GI50 (HCT-116 colon) was 25.8 µM, the TGI (HCT-116 colon) was > 100 µM and the GI50 (TK-10 renal) was 18 µM. For the same compound, the TGI (TK-10 renal) was 35.5 µM, the GI50 (SF-295 CNS) was 32 µM and the TGI (SF-295 CNS) was > 100 µM. For the same compound, the GI50 (MCF7 breast) was 23 µM, the TGI (MCF7 breast) was > 100 µM and the GI50 (SK-MEL-28 melanoma) was 30.6 µM. It also gave a TGI (SK-MEL-28 melanoma) of 95 µM, a GI50 (UACC-62 melanoma) of 21.3 µM and a TGI (UACC-62 melanoma) of 57.2 µM. It also gave a GI50 (HCT-15 colon) of 16.7 µM, a TGI (HCT-15 colon) of 59.3 µM and a GI50 (RPMI-8226 leukemia) of 14 µM. For the same compound, the TGI (RPMI-8226 leukemia) was 91.2 µM, the GI50 (SF-539 CNS) was 21 µM and the TGI (SF-539 CNS) was 94.8 µM. The GI50 (SF-268 CNS) was 10.7 µM, the TGI (SF-268 CNS) was 35.9 µM and the GI50 (OVCAR-4 ovarian) was 22.6 µM. The TGI (OVCAR-4 ovarian) was 74.2 µM, the GI50 (OVCAR-5 ovarian) was 27.8 µM and the TGI (OVCAR-5 ovarian) was 72.1 µM. The GI50 (K-562 leukemia) was 31.4 µM, the TGI (K-562 leukemia) was > 100 µM and the GI50 (HOP-92 NSCLC) was 25.5 µM. For the same compound, the TGI (HOP-92 NSCLC) was 65.4 µM, the GI50 (SNB-19 CNS) was > 100 µM and the TGI (SNB-19 CNS) was > 100 µM. It also gave a GI50 (A498 renal) of 24.2 µM, a TGI (A498 renal) of 80 µM and a GI50 (HS 578T breast) of 18.9 µM. The TGI (HS 578T breast) was 63.4 µM, the GI50 (NCI-H522 lung) was 22.1 µM and the TGI (NCI-H522 lung) was > 100 µM. For the same compound, the GI50 (LOX IMVI melanoma) was 21.1 µM, the TGI (LOX IMVI melanoma) was > 100 µM and the GI50 (IGROV1 ovarian) was 8.7 µM. For the same compound, the TGI (IGROV1 ovarian) was > 100 µM, the GI50 (SN12C renal) was 36.4 µM and the TGI (SN12C renal) was > 100 µM. The GI50 (NCI-H460 lung) was 24 µM, the TGI (NCI-H460 lung) was > 100 µM and the GI50 (RXF 393 renal) was 8.98 µM. For the same compound, the TGI (RXF 393 renal) was 34.6 µM, the GI50 (MDA-MB-231 breast) was 33 µM and the TGI (MDA-MB-231 breast) was 66.6 µM. The GI50 (MDA-MB-435) was 19.5 µM, the TGI (MDA-MB-435) was 52.1 µM and the GI50 (A549 NSCLC) was 42.7 µM. For the same compound, the TGI (A549 NSCLC) was > 100 µM, the GI50 (SK-MEL-5 melanoma) was 15.7 µM and the TGI (SK-MEL-5 melanoma) was 37.7 µM. For the same compound, the GI50 (CCRF-CEM leukemia) was 20.8 µM, the TGI (CCRF-CEM leukemia) was > 100 µM and the GI50 (UACC-257 melanoma) was 18.6 µM. The TGI (UACC-257 melanoma) was 40.6 µM, the GI50 (MALME-3M melanoma) was 21.9 µM and the TGI (MALME-3M melanoma) was 45.9 µM. The GI50 (SNB-75 CNS) was 25.9 µM, the TGI (SNB-75 CNS) was > 100 µM and the GI50 (HT29 colon) was 55.6 µM. The TGI (HT29 colon) was > 100 µM, the GI50 (MOLT-4 leukemia) was 80.3 µM and the TGI (MOLT-4 leukemia) was > 100 µM. The GI50 (SK-OV-3 ovarian) was 93.4 µM, the TGI (SK-OV-3 ovarian) was > 100 µM and the GI50 (EKVX NSCLC) was 21.6 µM. It also gave a TGI (EKVX NSCLC) of 45.8 µM.
For `CCN(CC)C(=O)C[n+]1c2ccccc2n2cc(N)ccc21`, the TGI (SW-620 colon) was > 100 µM, the TGI (SK-MEL-2 melanoma) was > 100 µM and the TGI (M14 melanoma) was > 100 µM. The TGI (OVCAR-8 ovarian) was > 100 µM, the TGI (U251 CNS) was > 100 µM and the TGI (KM12 colon) was > 100 µM. For the same compound, the TGI (HOP-62 NSCLC) was > 100 µM, the TGI (PC-3 prostate) was > 100 µM and the TGI (ACHN renal) was > 100 µM. For the same compound, the TGI (T-47D breast) was > 100 µM, the TGI (BT-549 breast) was > 100 µM and the TGI (OVCAR-3 ovarian) was > 100 µM. The TGI (HCC-2998 colon) was > 100 µM, the TGI (HL-60(TB) leukemia) was > 100 µM and the TGI (COLO 205 colon) was > 100 µM. For the same compound, the TGI (786-0 renal) was > 100 µM, the TGI (UO-31 renal) was > 100 µM and the TGI (DU-145 prostate) was > 100 µM. The TGI (NCI/ADR-RES ovarian) was > 100 µM, the TGI (SR leukemia) was > 100 µM and the TGI (NCI-H23 lung) was > 100 µM. The TGI (NCI-H226 lung) was > 100 µM, the TGI (HCT-116 colon) was > 100 µM and the TGI (TK-10 renal) was > 100 µM. The TGI (SF-295 CNS) was > 100 µM, the TGI (MCF7 breast) was > 100 µM and the TGI (SK-MEL-28 melanoma) was > 100 µM. The TGI (UACC-62 melanoma) was > 100 µM, the TGI (HCT-15 colon) was > 100 µM and the TGI (RPMI-8226 leukemia) was > 100 µM. The TGI (SF-539 CNS) was > 100 µM, the TGI (SF-268 CNS) was > 100 µM and the TGI (OVCAR-4 ovarian) was > 100 µM. For the same compound, the TGI (OVCAR-5 ovarian) was > 100 µM, the TGI (K-562 leukemia) was > 100 µM and the TGI (HOP-92 NSCLC) was > 100 µM. For the same compound, the TGI (SNB-19 CNS) was > 100 µM, the TGI (A498 renal) was > 100 µM and the TGI (HS 578T breast) was > 100 µM. For the same compound, the TGI (LOX IMVI melanoma) was > 100 µM, the TGI (IGROV1 ovarian) was > 100 µM and the TGI (NCI-H460 lung) was > 100 µM. For the same compound, the TGI (RXF 393 renal) was > 100 µM, the TGI (MDA-MB-231 breast) was > 100 µM and the TGI (MDA-MB-435) was > 100 µM. The TGI (A549 NSCLC) was > 100 µM, the TGI (SK-MEL-5 melanoma) was > 100 µM and the TGI (CCRF-CEM leukemia) was > 100 µM. For the same compound, the TGI (UACC-257 melanoma) was > 100 µM, the TGI (MALME-3M melanoma) was > 100 µM and the TGI (SNB-75 CNS) was > 100 µM. For the same compound, the TGI (HT29 colon) was > 100 µM, the TGI (MOLT-4 leukemia) was > 100 µM and the TGI (SK-OV-3 ovarian) was > 100 µM. For the same compound, the TGI (EKVX NSCLC) was > 100 µM and the TGI (CAKI-1 renal) was > 100 µM.
